Results on 37 compounds are retold here after patent US6133291A, “N-(imidazolylalkyl)substituted cyclic amines as histamine-H3 agonists or antagonists” (Schering Corporation, priority 1998, dated 2000).

Experiment [1] deals with T1, H3 receptors (Cavia porcellus, UniProt Q9JI35). The experiment is described as follows: H3-Receptor Binding Assay (guinea pig brain membranes, [3H]R-α-methylhistamine or [3H]Nα-methylhistamine).
Experiment [2] deals with T1, H3 receptors. Description: pA2 at H3 receptor (guinea pig neuronal ileum contraction assay). In kind it is biochemical. From the text: pA2=-logEC50, as defined by J. Hey, Eur. J. Pharmacol., (1995), Vol. 294, 329.
Experiment [3] concerns mice. Particulars: electrically induced convulsions; cited from earlier work.
The subject of experiment [4] is rat. Particulars: cited from earlier work.
Experiment [5] has as its system histamine-H3 receptor. Particulars: cited from earlier work.
[6] abbreviates: HCl salt, guinea pig brain membranes, pH 7.5, 30° C., 30 min.
Where [7] appears, read: HCl salt, pA2=-logEC50 as defined by J. Hey.
Where [8] appears, read: HCl salt, pA2=-logEC50 as defined by J. Hey, read-out: pA2 (converted).

SMILES strings stand for the structures. Like-named read-outs stand apart in the source and are kept apart here.

T1 sequence (Q9JI35 whole entry): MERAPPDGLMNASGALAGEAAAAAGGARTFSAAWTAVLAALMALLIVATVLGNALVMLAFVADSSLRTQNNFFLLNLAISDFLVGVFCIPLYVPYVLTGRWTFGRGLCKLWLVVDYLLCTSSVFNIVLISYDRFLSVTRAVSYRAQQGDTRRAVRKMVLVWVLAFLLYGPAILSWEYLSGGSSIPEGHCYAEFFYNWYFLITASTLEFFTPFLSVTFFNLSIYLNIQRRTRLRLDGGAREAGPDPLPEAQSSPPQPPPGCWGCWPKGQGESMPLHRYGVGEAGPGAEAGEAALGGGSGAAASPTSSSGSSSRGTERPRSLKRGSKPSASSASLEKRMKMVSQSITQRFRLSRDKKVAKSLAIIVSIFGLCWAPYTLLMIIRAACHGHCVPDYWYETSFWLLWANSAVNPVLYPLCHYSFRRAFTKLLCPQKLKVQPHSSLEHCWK

Broadly, the Ki is the dissociation constant of the complex between target and ligand, obtained from inhibition or displacement. The term pA2 denotes the negative logarithm of the molar antagonist concentration that doubles the agonist concentration needed for the same response. Consider `OCCN1CCC(CCCC2CCN(CCCc3c[nH]cn3)CC2)CC1` [compound 29], for which the Ki in experiment [1] (setting [6]) was found to be 12 nM. Moreover, the pA2 in experiment [2] (setting [7]) worked out at 7.1.

The compound `O=C(NCc1ccc(Cl)cc1)C1CCN(CCCc2c[nH]cn2)CC1` [No. 12] came in with a Ki in experiment [1] of 29 nM. Besides, the Kb in experiment [2] (setting [8]) was 10 nM.

Compound `FC(F)(F)Oc1ccc(NCC2CCN(CCCCc3c[nH]cn3)CC2)cc1` [compound 22] registered a Ki in experiment [1] of 9 nM.

Turning to `S=C(NC1CCCCC1)N1CCC(c2cnc[nH]2)CC1` [thioperamide], in experiment [3], the “duration of each phase of convulsion” value is on record as “decreased the duration of each phase of convulsion” and the electroconvulsive threshold entry was “raised the electroconvulsive threshold”. In experiment [4], the reversal learning entry is “improve short-term memory and reversal learning”; the short-term memory result is “improve short-term memory”.

For the compound `O=C(NC1CCN(CCCc2c[nH]cn2)CC1)c1ccc(OC(F)(F)F)cc1` [No. 17], in experiment [1], the Ki came out at 23 nM.

In the case of `O=C(Nc1cccc(OC(F)(F)F)c1)C1CCN(CCCc2c[nH]cn2)CC1` [compound 11], the Ki in experiment [1] is 1 nM. For the same compound, the Kb in experiment [2] (setting [8]) is 0.631 nM.

In experiment [1], `O=C(Nc1ccc(Cl)cc1)C1CCN(CCCCc2c[nH]cn2)CC1` [No. 7] displayed a Ki of 35 nM.

In experiment [1], `O=C(Nc1ccc(OC(F)(F)F)cc1)C1CCN(CCCCc2c[nH]cn2)CC1` [No. 2] yielded a Ki of 2 nM. The Kb in experiment [2] (setting [8]) is 0.501 nM.

On to `Fc1ccc(OCC2CCN(CCCCc3c[nH]cn3)CC2)cc1` [compound 34], for which the Ki in experiment [1] is 10 nM. Moreover, in experiment [2] (setting [8]), the Kb is 20 nM.

As to `Fc1ccc(C2=CCN(CCCCc3c[nH]cn3)CC2)cc1` [compound 31], the Ki in experiment [1] turned out to be 14 nM. Moreover, the Kb in experiment [2] is 12.6 nM.

`FC(F)(F)Oc1ccc(CNC2CCN(CCCCc3c[nH]cn3)CC2)cc1` [compound 21]: in experiment [1], the Ki was 13 nM. Moreover, in experiment [2] (setting [8]), the Kb is 7.94 nM.

`CCOC(=O)C1CCN(CCCCc2c[nH]cn2)CC1` [compound 1] returned an inhibition constant Ki in experiment [1] of 22 nM.

Regarding `N=C(N)SCCCc1c[nH]cn1` [S-[3-(4(5)-imidazolyl)propyl]isothiourea], in experiment [5], the H3 agonist/antagonist activity entry is listed as “histamine-H3 antagonist”.

In experiment [1], `OC1(Cc2ccccc2)CCN(CCCc2c[nH]cn2)CC1` [compound 36] showed an inhibitory constant (Ki) of 660 nM.

In turn, `O=C(Nc1cccc(C(F)(F)F)c1)C1CCN(CCCCc2c[nH]cn2)CC1` [No. 10] yielded a Ki in experiment [1] of 9 nM. Further, the Kb in experiment [2] (setting [8]) was 0.794 nM.

In experiment [1], `CCCCOc1ccc(NC(=O)C2CCN(CCCc3c[nH]cn3)CC2)cc1` [compound 14] gave a Ki of 10 nM. In experiment [2] (setting [8]), the Kb is 1 nM.

Turning to `OC1(c2ccc(Cl)cc2)CCN(CCCc2c[nH]cn2)CC1` [compound 25], the affinity in experiment [1] corresponds to a Ki of 6 nM. Besides, the Kb in experiment [2] is 12.6 nM.

The compound `O=C(Nc1ccc(Cl)c(Cl)c1)C1CCN(CCCCc2c[nH]cn2)CC1` [No. 8] came in with a Ki in experiment [1] of 27 nM. For the same compound, in experiment [2] (setting [8]), the Kb was 158 nM.

Consider `CCCNC(=O)C1CCN(CCCCc2c[nH]cn2)CC1` [compound 3], for which, in experiment [1], the affinity corresponds to a Ki of 53 nM.

For `O=C(c1ccc(F)cc1)C1CCN(CCCCc2c[nH]cn2)CC1` [compound 33], the affinity in experiment [1] corresponds to a Ki of 3 nM. The Kb in experiment [2] (setting [8]) is 6.31 nM.

In experiment [1], `O=C(Nc1cccc(O)c1)C1CCN(CCCc2c[nH]cn2)CC1` [compound 16] had a Ki of 700 nM.

Consider `CCCN(CC1CCN(CCCCc2c[nH]cn2)CC1)S(=O)(=O)c1ccc(OC(F)(F)F)cc1` [compound 6], for which, in experiment [1], the Ki is 24 nM. Besides, the Kb in experiment [2] (setting [8]) was 316 nM.

Compound `O=C(Nc1cccc(Cl)c1)C1CCN(CCCCc2c[nH]cn2)CC1` [compound 9] came in with a Ki in experiment [1] of 5.5 nM. Also, the Kb in experiment [2] (setting [8]) was 1.26 nM.

In experiment [1], `O=C(NC1CCN(CCCc2c[nH]cn2)CC1)c1ccc(F)cc1` [No. 18] came in with a Ki of 52 nM.

For `O=C(c1ccc(F)cc1)C1CCN(CCCc2c[nH]cn2)CC1` [compound 32], the inhibition constant (Ki) in experiment [1] was 6 nM. In addition, the Kb in experiment [2] (setting [8]) is 20 nM.

Regarding `O=C(Nc1ccc(O)cc1)C1CCN(CCCc2c[nH]cn2)CC1` [compound 15], affinity in experiment [1] was put at a Ki of 100 nM.

In experiment [1], `O=C(NCc1ccc(OC(F)(F)F)cc1)C1CCN(CCCc2c[nH]cn2)CC1` [compound 13] displayed a Ki of 24 nM. Also, the Kb in experiment [2] (setting [8]) is 31.6 nM.

In experiment [1], `CCCNCC1CCN(CCCCc2c[nH]cn2)CC1` [No. 4] yielded a Ki of 200 nM.

Consider `OC1(c2cccc(C(F)(F)F)c2)CCN(CCCCc2c[nH]cn2)CC1` [compound 28], for which affinity in experiment [1] was put at a Ki of 60 nM.

`CCCN(CC1CCN(CCCCc2c[nH]cn2)CC1)S(=O)(=O)c1ccc(Cl)cc1` [compound 5]: the inhibition constant Ki in experiment [1] stood at 44 nM.

On to `CC1(C(=O)Nc2ccc(OC(F)(F)F)cc2)CCN(CCCCc2c[nH]cn2)CC1` [No. 19], for which, in experiment [1], affinity was put at a Ki of 180 nM. Also, the Kb in experiment [2] (setting [8]) is 39.8 nM.

In experiment [1], `OC1(c2ccc(Cl)cc2)CCN(CCCCCc2c[nH]cn2)CC1` [compound 27] displayed a Ki of 5 nM. Also, the Kb in experiment [2] was 7.94 nM.

Turning to `CC1(C(=O)Nc2ccc(OC(F)(F)F)cc2)CCCN(CCCCc2c[nH]cn2)C1` (stereo not shown) [No. 20], the affinity in experiment [1], expressed as Ki, was 170 nM.

`c1nc(CCCCN2CCC(N3CCCCC3)CC2)c[nH]1` [compound 24]: the Ki in experiment [1] is 100 nM. For the same compound, the Kb in experiment [2] (setting [8]) was 631 nM.

For the compound `OC1(c2ccc(Cl)cc2)CCN(CCCCc2c[nH]cn2)CC1` [compound 26], in experiment [1], the Ki amounted to 6 nM. Moreover, the Kb in experiment [2] was 10 nM.

In turn, `CCC(=O)C1(c2ccccc2)CCN(CCCc2c[nH]cn2)CC1` [compound 35] registered a Ki in experiment [1] of 500 nM.

Regarding `OCCN1CCC(CCCC2CCN(CCCCc3c[nH]cn3)CC2)CC1` [compound 30], in experiment [1] (setting [6]), the Ki amounted to 7 nM. Further, the pA2 in experiment [2] (setting [7]) amounted to 7.7.
